# Experimental data from PubChem BioAssay AID2060336 (Molecular Pharmacology Branch, DTP, NCI, 2025).
# Tested on: 958767-090-R-J1-PDC spheroid growth
# Assay: Anticancer human tumor 958767-090-R-J1-PDC patient-derived head and neck squamous carcinoma cell line growth inhibition [IpAb]
# Settings: spheroids with HUVEC and MSC; for IC50: curve of first compound; for viability, T/C: stronger effect = lower value
# Outline: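 Multi-cell spheroids of 60% tumour cells, 25% HUVEC and 15% MSC in ultra-low-attachment U-bottom wells, treated with agents combined with ipatasertib or abemaciclib. Half-log ranges top out near clinical Cmax, or 10 microM when Cmax is unknown.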
# [1] = second compound 0.01 µM, first compound 0.00949 µM
# [2] = second compound 0.01 µM, first compound 0.03 µM
# [3] = second compound 0.01 µM, first compound 0.0949 µM
# [4] = second compound 0.01 µM, first compound 0.3 µM
# [5] = second compound 0.0316 µM, first compound 0.00949 µM
# [6] = second compound 0.0316 µM, first compound 0.03 µM
# [7] = second compound 0.0316 µM, first compound 0.0949 µM
# [8] = second compound 0.0316 µM, first compound 0.3 µM
# [9] = second compound 0.1 µM, first compound 0.00949 µM
# [10] = second compound 0.1 µM, first compound 0.03 µM
# [11] = second compound 0.1 µM, first compound 0.0949 µM
# [12] = second compound 0.1 µM, first compound 0.3 µM
# [13] = second compound 0.316 µM, first compound 0.00949 µM
# [14] = second compound 0.316 µM, first compound 0.03 µM
# [15] = second compound 0.316 µM, first compound 0.0949 µM
# [16] = second compound 0.316 µM, first compound 0.3 µM
# [17] = second compound 1 µM, first compound 0.00949 µM
# [18] = second compound 1 µM, first compound 0.03 µM
# [19] = second compound 1 µM, first compound 0.0949 µM
# [20] = second compound 1 µM, first compound 0.3 µM
# [21] = second compound 0.01 µM, first compound 0.0316 µM
# [22] = second compound 0.01 µM, first compound 0.1 µM
# [23] = second compound 0.01 µM, first compound 0.316 µM
# [24] = second compound 0.01 µM, first compound 1 µM
# [25] = second compound 0.01 µM, first compound 3.16 µM
# [26] = second compound 0.01 µM, first compound 10 µM
# [27] = second compound 0.0316 µM, first compound 0.0316 µM
# [28] = second compound 0.0316 µM, first compound 0.1 µM
# [29] = second compound 0.0316 µM, first compound 0.316 µM
# [30] = second compound 0.0316 µM, first compound 1 µM
# [31] = second compound 0.0316 µM, first compound 3.16 µM
# [32] = second compound 0.0316 µM, first compound 10 µM
# [33] = second compound 0.1 µM, first compound 0.0316 µM
# [34] = second compound 0.1 µM, first compound 0.1 µM
# [35] = second compound 0.1 µM, first compound 0.316 µM
# [36] = second compound 0.1 µM, first compound 1 µM
# [37] = second compound 0.1 µM, first compound 3.16 µM
# [38] = second compound 0.1 µM, first compound 10 µM
# [39] = second compound 0.316 µM, first compound 0.0316 µM
# [40] = second compound 0.316 µM, first compound 0.1 µM
# [41] = second compound 0.316 µM, first compound 0.316 µM
# [42] = second compound 0.316 µM, first compound 1 µM
# [43] = second compound 0.316 µM, first compound 3.16 µM
# [44] = second compound 0.316 µM, first compound 10 µM
# [45] = second compound 1 µM, first compound 0.0316 µM
# [46] = second compound 1 µM, first compound 0.1 µM
# [47] = second compound 1 µM, first compound 0.316 µM
# [48] = second compound 1 µM, first compound 1 µM
# [49] = second compound 1 µM, first compound 3.16 µM
# [50] = second compound 1 µM, first compound 10 µM
# 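Note: spheroids exposed to agents for 7 days.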
# 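Throughout, for viability, T/C: 100% = DMSO vehicle control wells.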
smiles,measurement,setting,value
CC(=O)c1c(C)c2cnc(Nc3ccc(N4CCNCC4)cn3)nc2n(C2CCCC2)c1=O + CCN1CCN(Cc2ccc(Nc3ncc(F)c(-c4cc(F)c5nc(C)n(C(C)C)c5c4)n3)nc2)CC1,IC50,second compound 0.01 µM,> 300 nM
same,IC50,second compound 0.0316 µM,> 300 nM
same,IC50,second compound 0.1 µM,137 nM
same,IC50,second compound 0.316 µM,265 nM
same,IC50,second compound 1 µM,> 300 nM
same,"viability, T/C","second compound 0.01 µM, first compound 0.000949 µM",80.7%
same,"viability, T/C","second compound 0.01 µM, first compound 0.003 µM",72.5%
same,"viability, T/C",[1],66.5%
same,"viability, T/C",[2],64.3%
same,"viability, T/C",[3],59.6%
same,"viability, T/C",[4],53.4%
same,"viability, T/C","second compound 0.0316 µM, first compound 0.000949 µM",73.8%
same,"viability, T/C","second compound 0.0316 µM, first compound 0.003 µM",75.5%
same,"viability, T/C",[5],54.2%
same,"viability, T/C",[6],53.8%
same,"viability, T/C",[7],56.5%
same,"viability, T/C",[8],49.7%
same,"viability, T/C","second compound 0.1 µM, first compound 0.000949 µM",61.5%
same,"viability, T/C","second compound 0.1 µM, first compound 0.003 µM",56.2%
same,"viability, T/C",[9],65.7%
same,"viability, T/C",[10],53.6%
same,"viability, T/C",[11],44.4%
same,"viability, T/C",[12],50.9%
same,"viability, T/C","second compound 0.316 µM, first compound 0.000949 µM",54.2%
same,"viability, T/C","second compound 0.316 µM, first compound 0.003 µM",50.7%
same,"viability, T/C",[13],57.2%
same,"viability, T/C",[14],52.9%
same,"viability, T/C",[15],51.1%
same,"viability, T/C",[16],47.9%
same,"viability, T/C","second compound 1 µM, first compound 0.000949 µM",65.2%
same,"viability, T/C","second compound 1 µM, first compound 0.003 µM",63.8%
same,"viability, T/C",[17],60.6%
same,"viability, T/C",[18],65.2%
same,"viability, T/C",[19],62.2%
same,"viability, T/C",[20],53.1%
CC(C)(C)c1cnc(CSc2cnc(NC(=O)C3CCNCC3)s2)o1 + CCN1CCN(Cc2ccc(Nc3ncc(F)c(-c4cc(F)c5nc(C)n(C(C)C)c5c4)n3)nc2)CC1,IC50,second compound 0.01 µM,144 nM
same,IC50,second compound 0.0316 µM,134 nM
same,IC50,second compound 0.1 µM,93.6 nM
same,IC50,second compound 0.316 µM,42.9 nM
same,IC50,second compound 1 µM,48.1 nM
same,"viability, T/C",[1],106%
same,"viability, T/C",[2],97.6%
same,"viability, T/C",[3],76.5%
same,"viability, T/C",[4],2.6%
same,"viability, T/C","second compound 0.01 µM, first compound 0.949 µM",2.82%
same,"viability, T/C","second compound 0.01 µM, first compound 3 µM",2.81%
same,"viability, T/C",[5],98.5%
same,"viability, T/C",[6],84.2%
same,"viability, T/C",[7],70.5%
same,"viability, T/C",[8],1.81%
same,"viability, T/C","second compound 0.0316 µM, first compound 0.949 µM",2.35%
same,"viability, T/C","second compound 0.0316 µM, first compound 3 µM",1.86%
same,"viability, T/C",[9],76.2%
same,"viability, T/C",[10],63.3%
same,"viability, T/C",[11],50.1%
same,"viability, T/C",[12],2.58%
same,"viability, T/C","second compound 0.1 µM, first compound 0.949 µM",1.95%
same,"viability, T/C","second compound 0.1 µM, first compound 3 µM",2.75%
same,"viability, T/C",[13],71.2%
same,"viability, T/C",[14],59.6%
same,"viability, T/C",[15],27.2%
same,"viability, T/C",[16],1.79%
same,"viability, T/C","second compound 0.316 µM, first compound 0.949 µM",3.55%
same,"viability, T/C","second compound 0.316 µM, first compound 3 µM",3.21%
same,"viability, T/C",[17],91.7%
same,"viability, T/C",[18],78.2%
same,"viability, T/C",[19],9.34%
same,"viability, T/C",[20],3.35%
same,"viability, T/C","second compound 1 µM, first compound 0.949 µM",3.92%
same,"viability, T/C","second compound 1 µM, first compound 3 µM",2.96%
Cc1nc(NC(=O)N2CCCC2C(N)=O)sc1-c1ccnc(C(C)(C)C(F)(F)F)c1 (stereo not given) + CCN1CCN(Cc2ccc(Nc3ncc(F)c(-c4cc(F)c5nc(C)n(C(C)C)c5c4)n3)nc2)CC1,IC50,second compound 0.01 µM,171 nM
same,IC50,second compound 0.0316 µM,59 nM
same,IC50,second compound 0.1 µM,< 31.6 nM
same,IC50,second compound 0.316 µM,< 31.6 nM
same,IC50,second compound 1 µM,141 nM
same,"viability, T/C",[21],65.3%
same,"viability, T/C",[22],56.4%
same,"viability, T/C",[23],42.7%
same,"viability, T/C",[24],31.7%
same,"viability, T/C",[25],19.3%
same,"viability, T/C",[26],11.2%
same,"viability, T/C",[27],57.6%
same,"viability, T/C",[28],40.5%
same,"viability, T/C",[29],36.4%
same,"viability, T/C",[30],27.2%
same,"viability, T/C",[31],15.9%
same,"viability, T/C",[32],9.45%
same,"viability, T/C",[33],49.9%
same,"viability, T/C",[34],43.3%
same,"viability, T/C",[35],34.9%
same,"viability, T/C",[36],24.9%
same,"viability, T/C",[37],15.8%
same,"viability, T/C",[38],9.36%
same,"viability, T/C",[39],39.5%
same,"viability, T/C",[40],39.3%
same,"viability, T/C",[41],27.6%
same,"viability, T/C",[42],20.7%
same,"viability, T/C",[43],17.1%
same,"viability, T/C",[44],10.8%
same,"viability, T/C",[45],62.6%
same,"viability, T/C",[46],56.2%
same,"viability, T/C",[47],38.3%
same,"viability, T/C",[48],31.5%
same,"viability, T/C",[49],19.9%
same,"viability, T/C",[50],13.2%
Cn1nccc1Nc1nccc(-c2ccn(C(CO)c3ccc(Cl)c(F)c3)c(=O)c2)n1 (stereo not given) + CCN1CCN(Cc2ccc(Nc3ncc(F)c(-c4cc(F)c5nc(C)n(C(C)C)c5c4)n3)nc2)CC1,IC50,second compound 0.01 µM,1580 nM
same,IC50,second compound 0.0316 µM,1610 nM
same,IC50,second compound 0.1 µM,441 nM
same,IC50,second compound 0.316 µM,254 nM
same,IC50,second compound 1 µM,1020 nM
same,"viability, T/C",[21],72.3%
same,"viability, T/C",[22],62.5%
same,"viability, T/C",[23],61.3%
same,"viability, T/C",[24],55.5%
same,"viability, T/C",[25],43.8%
same,"viability, T/C",[26],24.9%
same,"viability, T/C",[27],69.3%
same,"viability, T/C",[28],60.3%
same,"viability, T/C",[29],53%
same,"viability, T/C",[30],55.2%
same,"viability, T/C",[31],46.8%
same,"viability, T/C",[32],17.1%
same,"viability, T/C",[33],63.3%
same,"viability, T/C",[34],50.6%
same,"viability, T/C",[35],51.5%
same,"viability, T/C",[36],46.4%
same,"viability, T/C",[37],36.8%
same,"viability, T/C",[38],18.6%
same,"viability, T/C",[39],61.4%
same,"viability, T/C",[40],50.5%
same,"viability, T/C",[41],46.8%
same,"viability, T/C",[42],47.7%
same,"viability, T/C",[43],31.6%
same,"viability, T/C",[44],23.2%
same,"viability, T/C",[45],71.1%
same,"viability, T/C",[46],60.2%
same,"viability, T/C",[47],60.2%
same,"viability, T/C",[48],50.7%
same,"viability, T/C",[49],38.8%
same,"viability, T/C",[50],21.7%
